Measurements: ChEMBL document CHEMBL3352543, “Synthesis and structure-activity relationship of novel cinnamamide derivatives as antidepressant agents” (Bioorg Med Chem Lett, 2014)

Key:
Mus musculus [1] = test: Antidepressant activity in C57BL/6 mouse assessed as decrease in immobility duration at 10 mg/kg, ig by tail suspension test; type: functional; conditions: C57BL/6, Tail, po, route intragastric
Mus musculus [2] = test: Toxic CNS activity in C57BL/6 mouse assessed as locomotor activity by measuring exploratory activity counts at 10 mg/kg, ig by open-field test (reference value: 94.50 +/- 6.18 counts); type: toxicity, organism-based; parameters: dose 10 mg/kg, route intragastric; conditions: in vivo, po
Mus musculus [3] = test: Antidepressant activity in C57BL/6 mouse assessed as decrease in immobility duration at 10 mg/kg, ig by forced swim test; type: functional; conditions: C57BL/6, po, route intragastric
[4] = Solubility in water; type: physicochemical; conditions: buffer
Mus musculus [5] = test: Antidepressant activity in ig dosed C57BL/6 mouse assessed as decrease in immobility duration by tail suspension test; type: functional, organism-based
Mus musculus [6] = test: Antidepressant activity in ig dosed C57BL/6 mouse assessed as decrease in immobility duration by forced swim test; type: functional, organism-based
Mus musculus [7] = test: Antidepressant activity in C57BL/6 mouse assessed as decrease in immobility duration at 2.5 mg/kg, ig by forced swim test; type: functional; conditions: C57BL/6, po, route intragastric
Mus musculus [8] = test: Antidepressant activity in C57BL/6 mouse assessed as decrease in immobility duration at 5 mg/kg, ig by forced swim test; type: functional; conditions: C57BL/6, po, route intragastric

SMILES	inhibition in vivo at 10 mg/kg (Mus musculus [1])	Activity (Mus musculus [2])	other results
COc1cc(/C=C/C(=O)NCC(C)C)cc2c1OCO2	11.7%	100.92	–
CC(C)CNC(=O)/C=C/c1ccc2c(c1)OCO2 [FOGARAMIDE]	13.2%	89.24	–
CC(C)CNC(=O)/C=C/c1cc(I)c2c(c1)OCO2	15.1%	94.42	–
O=C(c1cc2c(c(C(F)(F)F)c1)OCO2)N1CCCCC1	37.1%	87.4	–
CC(C)CNC(=O)CCc1cc2c(c(C(F)(F)F)c1)OCO2	28.8%	86.6	–
CNCCC(Oc1ccc(C(F)(F)F)cc1)c1ccccc1 (stereo not drawn) [FLUOXETINE]	39.4%	102	inhibition in vivo at 10 mg/kg (Mus musculus [3]): 29%
O=C(/C=C/c1cc2c(c(C(F)(F)F)c1)OCO2)N1CCCCC1	31.5%	83.6	–
CCN(CC)C(=O)/C=C/c1cc2c(c(C(F)(F)F)c1)OCO2	40.2%	95.3	–
CC(C)CNC(=O)c1cc2c(c(C(F)(F)F)c1)OCO2	33.1%	93.2	–
O=C(/C=C/c1cc2c(c(C(F)(F)F)c1)OCO2)N1CCNCC1	21.8%	91.54	solubility [4]: soluble
CC(C)CNC(=O)/C=C/c1cc(Cl)c2c(c1)OCO2	29.1%	94.75	–
CC(C)CNC(=O)/C=C/c1cc2c(c([N+](=O)[O-])c1)OCO2	6.4%	98	–
CC(C)CNC(=O)/C=C/c1cc2c(c(C(F)(F)F)c1)OCO2	42.5%	99.4	inhibition (Mus musculus [5]): Dose-dependent effect; inhibition in vivo at 10 mg/kg (Mus musculus [3]): 43.5%; inhibition (Mus musculus [6]): Dose-dependent effect; inhibition in vivo at 2.5 mg/kg (Mus musculus [7]): 20.8%; inhibition in vivo at 5 mg/kg (Mus musculus [8]): 34.4%
CN(C)C(=O)/C=C/c1cc2c(c(C(F)(F)F)c1)OCO2	12.6%	84	–
CN1CCN(C(=O)/C=C/c2cc3c(c(C(F)(F)F)c2)OCO3)CC1	24%	86.2	solubility [4]: soluble
